Test results published in patent US6506880B2, “Synthetic peptides that enhance atherogenic lipoprotein uptake and lower plasma cholesterol” (The UAB Research Foundation, priority 1998, dated 2003).

What was measured:
MEF1 cells [1] = experiment: Internalization (uptake) and binding of 125I-LDL by mouse embryonic fibroblasts; type: cell-based; settings: for Enhancement of LDL uptake (in words): mouse fibroblasts, results not shown
Experimental: The binding, internalization and degradation of LDL/VLDL in fibroblasts were measured using the method of Goldstein et. al. (20). All cells were grown in DMEM medium in 6-well plates and used at 75-90% confluence was reached. The seeding density of cells used was between 1.5×10^5 and 3.0×10^5 cells/ml medium. Cells were incubated with DMEM medium containing LPDS 24 hours prior to use to upregulate LDL receptors. […] Non-specific binding was determined in the presence of 50 fold excess unlabelled LDL/VLDL with or without peptides. After washing with ice cold PBS (containing BSA 2 mg/ml), to remove excess free labeled lipoprotein, the cells were incubated with dextran sulfate (4 mg/ml, Pharmacia, Mr 500,000) or heparin (Sigma Chemical Co., 10 mg/ml) for 1 h to release spcifically bound ^125I-LDL/^125I-VLDL, and washed with cold PBS. The counts in the dextran sulfate wash reflect the amount of LDL/VLDL bound to cells.
The cells were dissolved in 0.1 N NaOH and a 0.5 ml aliquot of cell suspension was counted. These counts reflect the amount of LDL/VLDL internalized. Protein was estimated by the method of Lowry. Degradation of LDL/VLDL were studied using the protocol described above for 4° C., except that the cells were incubated at 37° C. for 5 hours. Degradation was determined by precipitating the unbound ^125I-LDL/^125I-VLDL from the medium with 50% TCA (0.5 ml of 50% TCA was added to 1 ml of medium) and incubating at 4° C. for 30 minutes (20). The precipitate was removed by centrifugation. The supernatant was treated with 10 μl of 40% potassium iodide and 40 μl of 30% hydrogen peroxide. The free ^125I liberated was extracted with 2 ml of chloroform. The upper aqueous layer (0.5 ml) was then counted. This represented the amount of ^125I-monoiodotyrosine produced by the degradation of apoB in LDL/VLDL.
(§1) Heparinase and heparitinase treatment of cells was carried out as follows. The cells were treated with heparinase and heparitinase (Sigma Chemical Co.) at a concentration of 3 U/ml of media for 2 hours at 37° C. These experiments were carried out using human and mouse fibroblasts as well as HepG2 cells. Mouse embryonic fibroblasts (MEF1), the LRP deficient mutant (PEA13) and the LRP/LDL double mutant (MEF4) were (obtained from ATCC ) used to identify the possible mechanism involved. In all the cell experiments, the average value of triplicates was used.
The effect of the peptide was studied in two ways: (a) the peptide was added to the cell media directly after adding LDL and (b) it was first incubated with LDL for 1 h at room temperature and the coincubated mixture was added to the cells after filtering through a 0.221μ filter. The peptide-LDL “complex” or modified LDL appears to enhance the uptake of ^125I-LDL much more than the peptide by itself (results not shown). […]

[2] = Circular dichroic spectrometry, percent helicity of peptides; type: physicochemical; settings: for Percent Helicity, Peptide: peptide alone, 100 μM in PBS, pH 7.4, 25° C.; for Percent Helicity, Peptide/DMPC (1:20): peptide-DMPC complex 1:20 m/m
Experimental: Circular dichroic spectra were recorded on a signal averaging AVIV 62DS spectropolarimeter as described earlier (18). Briefly, circular dichroic spectra were obtained at 25° C. by signal averaging of four scans recorded every nm from 260 nm to 190 nm using a cell with a 0.01 cm path length Peptide concentrations in PBS, pH 7.4, used were 100 μM. Peptide-DMPC complexes (1:20 m/m) were prepared as described (18) and the change in peptide helicity upon lipid association measured. The helical content of the peptides was estimated from the mean residue ellipticity, [θ]MRE (deg.cm^2.dmol^−1) at 222 nm using the equations as detailed by Morrisett et al.(23).

HepG2 cells [3] = experiment: Uptake of 125I-VLDL-peptide complex by HepG2 cells; type: cell-based
MEF1 cells [4] = experiment: Effect of heparinase/heparitinase treatment of cells on peptide-mediated LDL internalization; type: cell-based, mouse; settings: heparinase and heparitinase 0.5 units each/ml
Experimental: MEF1 cells were pretreated with heparinase/heparitinase(3U/ml) for 2 hours at 37° C. and then incubated with ^1251I-LDL-peptide for 2 hours at 37° C. The black bars represent internalization without heparinase/heparitinase treatment while the speckled bars represent internalization after pretreatment with heparinase/heparitinase.
as §1
A possible high capacity, low affinity pathway has been previously identified for lipoprotein binding and uptake. Heparan sulfate proteoglycans (HSPG) bind and take up apo E-enriched lipoproteins (27). […] These apo E mimicking peptides could modify LDL and be taken up through heparan sulfate proteoglycans. Therefore, the cells were treated with heparinase and heparitinase (0.5 units each/ml).

HepG2 cells [5] = experiment: Degradation of 125I-VLDL-peptide complex by HepG2 cells; type: cell-based
Experimental: […] was used as a control. ^125I-VLDL was incubated with Ac-hE18A-NH2 (1:1 w/w) and reisolated by density centrifugation. The peptide bound to ^125I-VLDL floated to the top while the unbound peptide was at the bottom. The ^125I-VLDL-peptide complex was used to determine the effect of the peptide on the uptake and degradation of ^125I-VLDL. The first bar: ^125I-VLDL alone; the second bar: ^125VLDL-Ac-18A-NH2 (1:1 w/w); the third bar: VLDL-Ac-hE18A-NH2 (1:1 w/w). The data represent an average of triplicate values.
The binding, internalization and degradation of LDL/VLDL in fibroblasts were measured using the method of Goldstein et. al. (20). All cells were grown in DMEM medium in 6-well plates and used at 75-90% confluence was reached. The seeding density of cells used was between 1.5×10^5 and 3.0×10^5 cells/ml medium. Cells were incubated with DMEM medium containing LPDS 24 hours prior to use to upregulate LDL receptors. […] Non-specific binding was determined in the presence of 50 fold excess unlabelled LDL/VLDL with or without peptides. […]
The cells were dissolved in 0.1 N NaOH and a 0.5 ml aliquot of cell suspension was counted. […] Degradation was determined by precipitating the unbound ^125I-LDL/^125I-VLDL from the medium with 50% TCA (0.5 ml of 50% TCA was added to 1 ml of medium) and incubating at 4° C. for 30 minutes (20). […] The upper aqueous layer (0.5 ml) was then counted. […]

[6] = tested on: apo E-gene knock out mice; experiment: Intravenous administration of peptide, plasma cholesterol (CLiP); type: in vivo, mouse
Experimental: Female apo E knockout mice were injected through the tail vein with ^125I-Ac-hE18A-NH2 (50 μg in 100 μl PBS). Blood samples were taken by retro-orbital bleeding at baseline (0 h) and at 2 minutes and 6 hours following injection. Success of injection was determined by measuring radioactivity in the 2 minutes sample and calculating total plasma peptide by specific radioactivity of the peptide, assuming total plasma volume=4.2% of body weight.
50 μg of the ^125I-labeled peptide was injected into the tail vein into female apo E-gene knock out mice. Blood was drawn by retro-orbital bleeding immediately before injection (time 0), and at two minutes and 6 hours following the injection. Success of injections was determined by measuring the plasma radioactivity in the two minute sample; the total plasma peptide at two minutes was determined from the specific activity of the injected peptide and the radioactivity present in the plasma. Total plasma volume was assumed to be 4.2% of body weight. Plasma cholesterol profiles were determined on 5 μl of 0 h and 6 h samples by the CLiP method.
CLiP were determined using a modification of a previously described method for the semi-automated cholesterol profiling of lipoproteins by column chromatography (31). The apparatus consisted of two biocompatible HPLC pumps, an injector Pharmacia), a post-column reactor, a 30×1 cm Superose 6 column, and a spectrophotometric detector reading at 500 nm. Plasma samples were injected onto the Superose 6 column. Immediately after the column, cholesterol reagent (Cholesterol 1000, Pharmacia) was mixed with the column eluent through a low-dead-volume mixing tee, and the mixture entered a heating block (set at […]). Outflow from the heating block entered the spectrophotometric detector, and the cholesterol profile was collected through an A/D board and the digitized profile stored in a computer.
To determine the effect of peptide Ac-hE18A-NH2 in clearing the plasma cholesterol, 14 μg to 33 μg of the peptide were administered into six apo E(-/-) animals. In every case, the plasma cholesterol levels decreased. […]

[7] = apo E(-/-) mice, intravenous, 6 hours

LRKLRKRLLR [reference compound]
Enhancement of LDL uptake (in words) (MEF1 cells [1]): did not enhance LDL uptake

LRRLRRRLLR-18A (an analog of human apolipoprotein E receptor binding domain) [hE-(R)18A, analog of hE-18A with Lys replaced by Arg]
Percent Helicity, Peptide [2]: 51.2% | Percent Helicity, Peptide ([2]; listed as hE(R)18A): ~50% | Percent Helicity, Peptide/DMPC (1:20) [2]: 70.8%

LRKLRKRLLR-18A (LRKLRKRLLRDWLKAFYDKVAEKLKEAF) [hE-18A, 141-150 region of human apo E linked to class A amphipathic helical peptide 18A]
Percent Helicity, Peptide [2]: 36.0% | Percent Helicity, Peptide ([2]; listed as hE18A): 36% | Percent Helicity, Peptide/DMPC (1:20) [2]: 46.0%

Ac-18A-NH2: control peptide, end protected class A amphipathic helical peptide 18A [reference compound]
Enhancement of LDL uptake (in words) (MEF1 cells [1]): did not enhance LDL uptake | Uptake of VLDL by HepG2 cells (in words) (HepG2 cells [3]; VLDL-peptide 1:1 w/w): does not increase uptake of VLDL

Ac-hE18A-NH2: end protected analog of hE18A (acetyl and amino groups) (Ac-LRKLRKRLLRDWLKAFYDKVAEKLKEAF-NH2)
Percent Helicity, Peptide [2]: 69.3% | Percent Helicity, Peptide/DMPC (1:20) [2]: 74.3% | Effectiveness in LDL internalization of protected peptide relative to free peptide (MEF1 cells [1]; 10 μg peptide, LDL 10 μg, versus corresponding unprotected peptide): 5 times | Enhancement of LDL internalization (MEF1 cells [1]; MEF1 cells with induced LDL receptors, 125I-LDL 10 μg + peptide 10 μg, 2 hours at 37° C.): five | Reduction of uptake of peptide treated LDL by heparinase/heparitinase (MEF1 cells [4]): ~50% | Enhancement of uptake of VLDL compared to VLDL alone (HepG2 cells [3]; peptide-associated VLDL): six | Enhancement of degradation of VLDL by HepG2 cells (HepG2 cells [5]; VLDL-peptide 1:1 w/w, versus control): three | Enhancement of degradation of VLDL compared to VLDL alone (HepG2 cells [5]; peptide-associated VLDL): three | Reduction of total cholesterol ([6]; FIG. 10B, plasma cholesterol profile at 6 hours vs baseline, single animal): > 50% | HDL cholesterol [6, 7]: unchanged | VLDL and LDL cholesterol levels [6, 7]: lowered

LRKMRKRLMR-18A (DOMAIN 133..142 mouse apolipoprotein E receptor binding domain; listed as Mus sp.) [mE-18A]
Percent Helicity, Peptide [2]: 36.3% | Percent Helicity, Peptide ([2]; listed as mE18A): 36% | Percent Helicity, Peptide/DMPC (1:20) [2]: 44.0%
